Results from US9241964B2, “Composition from Sphaeranthus indicus and Garcinia mangostana for the control of metabolic syndrome” (LAILA NUTRACEUTICALS, priority 2009, dated 2016).

Assays:
[1] = system: Matrix Metalloproteinase-1 (MMP-1); test: Inhibition of MMP-1 production in PMA induced A2058 cells (ELISA); assay type: cell-based; settings: PMA induced A2058 human melanoma cells, 24 h, supernatant ELISA
Experimental: A2058 cells were induced with 50 nM PMA in absence or presence of different concentrations of LI/DD-II/054A/01 for 24 h as indicated. Secreted MMP-1 concentration in the cell free culture supernatants was measured using MMP-1 ELISA Development Kit (R&D System, Minneapolis, Minn., USA). The MMP-1 concentration in culture supernatants was estimated quantitatively from the standard curve generated using known concentrations of MMP-1. Percentage of MMP-1 inhibition at each concentration of test compound was calculated from the formula: {(Conc. of MMP-1 in PMA induced−Conc. of MMP-1 in the test well)×100}[…]Conc. of MMP-1 in PMA induced wells.
MMP-1 was evaluated in PMA induced human melanoma cells, A2058. Briefly, the cells were cultured in Dulbecco's Modified Eagles Medium (DMEM) with 2 mM Glutamine, 100 U/mL penicillin, […] streptomycin and 10% fetal bovine serum (Hyclone, Logan, Utah). Five thousand cells per well were seeded into a 96-well cell culture plate (Corning, USA) one day before the experiment. The culture media was replaced with fresh DMEM containing 10% fetal bovine serum. […] The MMP-1 concentration in culture supernatant was estimated quantitatively by interpolating the optical densities into the standard curve generated from known concentrations of MMP-1. […]

[2] = system: perilipin; test: Immunoblot of perilipin in 3T3-L1 adipocytes; assay type: cell-based, mouse; settings: immunoblot normalized with actin
Source text: (§1) The inventors have then evaluated the modulation of metabolic biomarkers those are primarily responsible for the adipogenesis processes, insulin resistance in type 2 diabetes, obesity, metabolic syndrome and other metabolic disorders such as Peroxisome proliferator-activated receptor gamma (PPARγ), CD36, adipocyte fatty acid binding protein 4 (FABP4 or aP2), Perilipin, and beta-3 Adrenergic Receptor (β3AR) during adipogenesis process in 3T3-L1 adipocytes by ethyl actate extract (LI/DD-II/054A/01) of Sphaeranthus indicus and 7-hydroxyfrullanolide (LI054A01) using an immunoblot assay. […] The protein extracts were evaluated by immunoblot assay, and the immuno-reactive bands were developed with West-pico chemiluminescent substrate and the blot images were captured in a Kodak Image Station, normalized with expression of actin.
(§2) Experimental protocol: Mouse pre-adipocyte 3T3-L1 cells are maintained in Dulbecco's Modified Eagles Medium (DMEM) supplemented with 2 mM glutamine, 4.5 g/L glucose and 10% fetal bovine serum. […] Protein content was measured in Bradford method by using Coomassie blue dye and cell lysates were stored in aliquots at −80° C. until further use. […]
(§3) Inhibition of protein expression of biomarker molecules adipocytes in presence or absence of Sphaeranthus indicus extract LI/DD-II/054A/01 and 7-hydroxyfrullanolide (LI054A01) was evaluated in immunoblot assay. […]

[3] = system: CD36; test: Immunoblot of CD36 in 3T3-L1 adipocytes; assay type: cell-based, mouse; settings: immunoblot normalized with actin
Source text: as §1, §2, §3

IC50 of MMP-1 [1]: 1.2 µg/mL
SMILES: C=C1C(=O)O[C@H]2C3=C(C)CCC[C@]3(C)CC[C@@]12O [LI054A01, 7-α-hydroxy-4,11(13)-eudesmadien-12,6-olide]
perilipin protein level [2]: potently ameliorated | adipocyte CD36 protein level [3]: potently ameliorated
